Assay results: patent US6252121A, “Metal-ligand complex catalyzed processes” (Union Carbide Chemicals & Plastics Technology Corporation, priority 1999, dated 2001)

Assays:
[1] = Partition of polar hydroformylation products, acetonitrile/hexane (GC); assay type: physicochemical; conditions: hexane/acetonitrile equal volumes
Description: The efficiency of the phase separation can be measured by a partition coefficient Kp of the one or more cyclic products which is defined as follows: [formula]
Solutions of polar hydroformylation products were prepared in acetonitrile. To each solution was added an equal volume of hexane, the mixture was vigorously shaken, allowed to settle and phase separate. The two phases were analyzed for polar aldehydes by gas chromatography.

[2] = Hydroformylation reaction rate of rhodium/ligand catalyst; conditions: 90° C., 300 ppm Rh, ligand/rhodium 20/1
Description: […] A mixture of 1,2,3,6-tetrahydrobenzaldehyde (6 grams) and octane (4 grams, internal standard) was added to the autoclave. The reaction rate was determined by gas chromatographic analyses of the samples taken during the course of reaction.
The procedure described in Example 1 was repeated with the modification of using Ligands B-F in place of Ligand A. The reaction rates for Ligands B-F are summarized in Table 1.

[3] = Relative hydroformylation reaction rates with Ligands C and G-J
Description: […]. A mixture of 1,2,3,6-tetrahydrobenzaldehyde (6 grams) and octane (4 grams, internal standard) was added to the autoclave. The reaction rate was determined by gas chromatographic analyses of the samples taken during the course of reaction.

[4] = Miscibility of reaction products with toluene (Comparative Example); assay type: physicochemical; conditions: reaction at 100° C. for 24 hours; no spontaneous phase separation
Description: The reaction was carried out at 100° C. for 24 hours. No spontaneous phase separation was observed upon the reaction completion.

[5] = hexane, 100 psi syngas (CO/H2 1:1)
[6] = Tetraglyme, 90° C., L/Rh ratio 20

In the case of “1,3- and 1,4-cyclohexanedicarboxaldehyde”, the “Kpartition of polar product” value ([1]; 5 wt. %) is reported as 38, the “Kpartition of polar product” value ([1]; 10 wt. %) is reported as 34 and the “Kpartition of polar product” value ([1]; 20 wt. %) is reported as 35.

In the case of “3-cyano-1-cyclohexanecarboxaldehyde and 4-cyano-1-cyclohexanecarboxaldehyde [cyanocyclohexanecarboxaldehyde]”, the “Kpartition of polar product” value ([1]; 10 wt. %) is reported as 69.

Work on CC(C)(c1ccccc1)c1ccc(OP(Oc2ccc(C(C)(C)c3ccccc3)cc2C(C)(C)c2ccccc2)Oc2ccc(C(C)(C)c3ccccc3)cc2C(C)(C)c2ccccc2)c(C(C)(C)c2ccccc2)c1 [Ligand A] yielded a reaction rate [2, 5] of 2.5 mol/L-hr.

CC(C)(C)c1ccccc1OP(Oc1ccccc1C(C)(C)C)Oc1ccccc1C(C)(C)C [Ligand B] showed a reaction rate [2, 5] of 3.4 mol/L-hr.

In the case of CC(C)(C)c1ccc(OP(Oc2ccc(C(C)(C)C)cc2C(C)(C)C)Oc2ccc(C(C)(C)C)cc2C(C)(C)C)c(C(C)(C)C)c1 [Ligand C], the “Relative Rate” value [3, 6] is reported as 1, the reaction rate [2, 5] is reported as 4.0 mol/L-hr and the reaction rate ([2]; toluene in place of hexane, 100 psi syngas) is reported as 4.4 mol/L-hr.

With CCC(C)(C)c1ccc(OP(Oc2ccc(C(C)(C)CC)cc2C(C)(C)CC)Oc2ccc(C(C)(C)CC)cc2C(C)(C)CC)c(C(C)(C)CC)c1 [Ligand D] the reaction rate [2, 5] was 3.6 mol/L-hr.

CCCCCC(C)(C)c1ccc(OP(Oc2ccc(C(C)(C)CCCCC)cc2C(C)(C)CCCCC)Oc2ccc(C(C)(C)CCCCC)cc2C(C)(C)CCCCC)c(C(C)(C)CCCCC)c1 [Ligand E] gave a reaction rate [2, 5] of 3.7 mol/L-hr.

CCCCCCCCCC(C)(C)c1ccc(OP(Oc2ccc(C(C)(C)CCCCCCCCC)cc2C(C)(C)CCCCCCCCC)Oc2ccc(C(C)(C)CCCCCCCCC)cc2C(C)(C)CCCCCCCCC)c(C(C)(C)CCCCCCCCC)c1 [Ligand F] showed a reaction rate [2, 5] of 3.3 mol/L-hr.

With COc1ccc(Op2oc3c(C(C)(C)C)cc(OC)cc3c3cc(OC)cc(C(C)(C)C)c3o2)c(C(C)(C)C)c1 [Ligand G] the “Relative Rate” value [3, 6] was 0.46.

In the case of CC(C)(C)c1cc(-c2cc(C(C)(C)C)cc(C(C)(C)C)c2Op2oc3ccccc3c3ccccc3o2)c(Op2oc3ccccc3c3ccccc3o2)c(C(C)(C)C)c1 [Ligand H], the “Relative Rate” value ([3]; Tetraglyme, 90° C., L/Rh ratio 4) is reported as 0.34.

With C1CCC(P(C2CCCCC2)C2CCCCC2)CC1 [Ligand I] the “Relative Rate” value ([3]; Tetraglyme, 120° C., L/Rh ratio 5) was 0.17.

In the case of O=S(=O)(O)c1cccc(P(C2CCCCC2)C2CCCCC2)c1 [Ligand J], the “Relative Rate” value ([3]; 1-Methyl-2-pyrrolidinone, 120° C., L/Rh ratio 5) is reported as 0.14.

With tricyclodecane dialdehydes the miscibility with toluene [4] was “completely miscible with toluene”.
